Experimental data as given in ChEMBL document CHEMBL1157497, “Theoretical studies on the structure and symmetry of the transmembrane region of glutamatergic GluR5 receptor” (J Med Chem, 2008).

Assays:
[1] = Inhibition of NMDA receptor
[2] = target: Glutamate NMDA receptor; GRIN1/GRIN2B (Homo sapiens, UniProt Q05586+Q13224); assay: Antagonist activity at NR1/2B receptor expressed in xenopus laevis at pH 6.9 by two electrode voltage clamp method; type: functional
Sequence of Glutamate NMDA receptor; GRIN1/GRIN2B (Q13224 whole entry, other chains not shown): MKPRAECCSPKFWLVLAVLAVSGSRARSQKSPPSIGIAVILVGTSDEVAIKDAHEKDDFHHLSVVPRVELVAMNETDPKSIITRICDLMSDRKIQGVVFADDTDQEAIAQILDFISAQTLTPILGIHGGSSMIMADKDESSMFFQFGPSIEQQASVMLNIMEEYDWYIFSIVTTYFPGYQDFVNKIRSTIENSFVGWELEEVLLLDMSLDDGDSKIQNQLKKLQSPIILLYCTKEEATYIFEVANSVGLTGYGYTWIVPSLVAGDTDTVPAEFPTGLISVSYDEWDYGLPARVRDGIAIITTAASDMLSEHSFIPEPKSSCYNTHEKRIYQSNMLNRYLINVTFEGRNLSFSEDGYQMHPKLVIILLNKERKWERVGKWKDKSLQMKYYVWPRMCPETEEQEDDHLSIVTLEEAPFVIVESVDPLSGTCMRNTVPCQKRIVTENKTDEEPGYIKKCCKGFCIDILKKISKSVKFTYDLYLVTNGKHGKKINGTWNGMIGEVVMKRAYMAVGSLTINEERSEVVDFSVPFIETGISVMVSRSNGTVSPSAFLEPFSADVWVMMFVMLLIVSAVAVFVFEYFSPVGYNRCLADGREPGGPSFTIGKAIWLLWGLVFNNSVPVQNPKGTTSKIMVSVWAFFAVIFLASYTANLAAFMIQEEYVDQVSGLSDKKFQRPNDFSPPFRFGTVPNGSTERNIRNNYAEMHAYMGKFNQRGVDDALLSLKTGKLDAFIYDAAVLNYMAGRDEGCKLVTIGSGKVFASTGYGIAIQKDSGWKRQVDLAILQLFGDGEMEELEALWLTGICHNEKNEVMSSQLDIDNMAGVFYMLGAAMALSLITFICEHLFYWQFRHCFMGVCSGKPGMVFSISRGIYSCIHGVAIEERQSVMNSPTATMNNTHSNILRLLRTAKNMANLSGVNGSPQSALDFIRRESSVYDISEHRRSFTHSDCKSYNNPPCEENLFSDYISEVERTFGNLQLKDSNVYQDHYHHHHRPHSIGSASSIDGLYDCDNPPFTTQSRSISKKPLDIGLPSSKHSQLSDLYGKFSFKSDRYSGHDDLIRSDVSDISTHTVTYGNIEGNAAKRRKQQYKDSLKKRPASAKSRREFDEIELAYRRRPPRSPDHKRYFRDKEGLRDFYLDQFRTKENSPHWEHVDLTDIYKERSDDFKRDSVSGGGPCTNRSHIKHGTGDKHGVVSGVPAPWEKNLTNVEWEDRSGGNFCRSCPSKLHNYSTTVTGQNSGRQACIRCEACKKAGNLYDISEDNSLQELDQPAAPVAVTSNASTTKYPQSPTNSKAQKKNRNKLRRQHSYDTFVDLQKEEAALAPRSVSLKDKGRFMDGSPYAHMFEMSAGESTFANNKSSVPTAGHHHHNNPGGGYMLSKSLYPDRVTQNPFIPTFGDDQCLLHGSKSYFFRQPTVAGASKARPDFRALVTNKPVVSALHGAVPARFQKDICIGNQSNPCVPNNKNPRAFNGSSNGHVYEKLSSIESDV

SMILES | IC50 [1] [µM] | IC50 [2] [µM]
NCCCCCNC1(c2ccccc2)CCCCC1 | 2.1 | –
CN1CC[C@@]23CCCC[C@@H]2[C@@H]1Cc1ccc(O)cc13 [DEXTRORPHAN] | – | 0.246
